Test results taken from article PMC7673538 (PLoS Biology, 2020).
Values joined by “and” are separate entries in the source; they are usually repeats but may differ in a detail not shown here. Equal entries are not always repeated. Where two headings read alike, the source gives them in different places.

Tests used:
human NET = target: T1, human NET (Homo sapiens, UniProt P23975); assay type: cell-based; details: for NET, Mean (Figure 8B): Control = 100; for NET, Mean as % (Figure 8B): Control = 100%
T1 construct: expressed in transfected cells; host or cells: HEK293 (gift of Dr. Hoener, F. Hoffmann-La Roche)
T1 sequence (P23975 whole entry): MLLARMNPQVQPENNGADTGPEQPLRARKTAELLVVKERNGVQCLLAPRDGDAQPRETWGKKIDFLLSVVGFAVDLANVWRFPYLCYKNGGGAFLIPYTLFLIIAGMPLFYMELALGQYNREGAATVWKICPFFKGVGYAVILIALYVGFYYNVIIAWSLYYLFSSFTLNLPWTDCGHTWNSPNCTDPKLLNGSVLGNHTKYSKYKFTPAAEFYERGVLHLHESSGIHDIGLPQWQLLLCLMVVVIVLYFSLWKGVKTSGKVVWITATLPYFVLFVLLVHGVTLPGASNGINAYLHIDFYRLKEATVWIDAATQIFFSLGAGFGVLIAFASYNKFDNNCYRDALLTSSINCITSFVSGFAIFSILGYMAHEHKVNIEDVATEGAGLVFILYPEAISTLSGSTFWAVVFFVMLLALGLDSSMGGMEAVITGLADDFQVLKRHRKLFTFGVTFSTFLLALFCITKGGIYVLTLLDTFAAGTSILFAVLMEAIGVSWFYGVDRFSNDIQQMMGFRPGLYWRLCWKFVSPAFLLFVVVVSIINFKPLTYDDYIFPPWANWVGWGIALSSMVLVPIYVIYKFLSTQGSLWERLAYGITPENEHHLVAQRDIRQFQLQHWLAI

human SERT = target: T2, human SERT (Homo sapiens, UniProt P31645); assay type: cell-based
T2 construct: expressed in transfected cells; host or cells: HEK293 (gift of Dr. Hoener, F. Hoffmann-La Roche)
T2 sequence (P31645 whole entry): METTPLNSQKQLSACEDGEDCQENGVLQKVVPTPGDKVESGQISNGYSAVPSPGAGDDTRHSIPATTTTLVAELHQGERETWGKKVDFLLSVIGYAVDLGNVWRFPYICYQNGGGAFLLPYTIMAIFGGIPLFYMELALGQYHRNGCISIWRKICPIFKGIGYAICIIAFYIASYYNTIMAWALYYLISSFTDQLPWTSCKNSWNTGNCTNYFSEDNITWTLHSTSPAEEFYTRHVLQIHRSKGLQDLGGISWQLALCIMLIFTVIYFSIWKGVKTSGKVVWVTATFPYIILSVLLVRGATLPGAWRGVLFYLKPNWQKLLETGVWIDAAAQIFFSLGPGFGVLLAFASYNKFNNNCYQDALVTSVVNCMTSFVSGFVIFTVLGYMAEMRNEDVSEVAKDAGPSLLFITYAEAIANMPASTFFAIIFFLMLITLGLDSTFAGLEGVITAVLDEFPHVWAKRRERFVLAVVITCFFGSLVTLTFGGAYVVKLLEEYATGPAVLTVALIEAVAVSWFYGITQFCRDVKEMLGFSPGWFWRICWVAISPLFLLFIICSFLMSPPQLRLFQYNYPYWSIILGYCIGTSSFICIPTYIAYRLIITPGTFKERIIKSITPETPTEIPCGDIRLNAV

CV-A24v = test: microbe, parasite or virus in culture; assay type: cell-based, coxsackievirus A24v
in vitro = details: monkey
HRV-B14 [1] = test: microbe, parasite or virus in culture; assay type: cell-based, human rhinovirus; details: Human rhinovirus sp.
HRV-B14 [2] = assay type: cell-based, human rhinovirus
EV-A71 (strain BrCr) = assay type: cell-based, enterovirus A71
CV-A24 = test: microbe, parasite or virus in culture; assay type: cell-based, coxsackievirus A24
EV-A71 = test: microbe, parasite or virus in culture; assay type: cell-based, enterovirus A71; details: for EC50: Enterovirus A

For `O=C(c1ccco1)N(Cc1ccc(C(F)(F)F)cc1)c1ccccc1` [Compound 19d, N-phenyl-N-(4-(trifluoromethyl)benzyl)furan-2-carboxamide], the “NET, Mean (Figure 8B)” value (human NET; 1µM) was 125.873, the “NET, Mean as % (Figure 8B)” value (human NET; 1µM) was 126% and the “NET, Mean (Figure 8B)” value (human NET; 100µM) was 118.011. The “NET, Mean as % (Figure 8B)” value (human NET; 100µM) was 118%, the “inhibition of NET function (in words)” value (human NET; HEK293 cells expressing human NET, 1 μM or 100 μM) was “neither 12a, 19b, 19d, nor the combined compound 12b inhibited” and the “SERT, Mean (Figure 8B)” value (human SERT; 1µM, Control = 100.00) was 104.62. For the same molecule, the “SERT, Mean as % (Figure 8B)” value (human SERT; 1µM, Control = 100%) was 105%, the “SERT, Mean (Figure 8B)” value (human SERT; 100µM) was 107.21 and the “SERT, Mean as % (Figure 8B)” value (human SERT; 100µM) was 107%. The “inhibition of SERT-mediated uptake (in words)” value (human SERT; HEK293 cells expressing human SERT, 1 and 100 μM) was “neither 12a, 19b, 19d, nor the combined compound 12b inhibited”, the EC50 (CV-A24v; Coxsackievirus, HeLa R19, read-out: EC50 Average) was 18.6 µM and the EC50 (CV-A24v; Coxsackievirus, HeLa R19, read-out: EC50 CV-A24v strain 110386) was 15.7 ± 1.32 µM. It also gave an EC50 (CV-A24v; Coxsackievirus, HeLa R19, read-out: EC50 CV-A24v strain 110389) of 18.6 ± 0.44 µM, an EC50 (CV-A24v; Coxsackievirus, HeLa R19, read-out: EC50 CV-A24v strain 110390) of 16.8 ± 0.33 µM and an EC50 (CV-A24v; Coxsackievirus, HeLa R19, read-out: EC50 CV-A24v strain 110392) of 19.1 ± 0.97 µM. It also gave an EC50 (CV-A24v; Coxsackievirus, HeLa R19, read-out: EC50 Exp1) of 17 µM, an EC50 (CV-A24v; Coxsackievirus, HeLa R19, read-out: EC50 Exp2) of 14.3 µM and an EC50 (CV-A24v; read-out: EC50 Average) of 16.8 µM. The EC50 (CV-A24v; read-out: EC50 Exp1) was 18.1 µM and 17.1 µM and 20 µM, the EC50 (CV-A24v; read-out: EC50 Exp2) was 19 µM and 16.4 µM and 18.1 µM and the CC50 (in vitro; CC50) was 92.6 ± 1.51 µM. It also gave a CC50 (in vitro; CC50 BGM Average) of 92.6 µM, a CC50 (in vitro; Exp 1 CC50 BGM) of 91.1 µM and a CC50 (in vitro; Exp 2 CC50 BGM) of 94.1 µM. It also gave an EC50 (HRV-B14 [1]; HRVB14, HeLa R19, read-out: EC50 Exp1) of 4.76 µM, an EC50 (HRV-B14 [1]; HRVB14, HeLa R19, read-out: EC50 Exp2) of 3.61 µM and an EC50 (HRV-B14 [1]; HRVB14, HeLa R19, read-out: EC50 HRV-B14) of 4.19 ± 0.58 µM. For the same molecule, the “virus titer, TCID50/ml (Figure 2A)” value (HRV-B14 [2]; compound concentration 0.001 µM) was 13548130 TCID50/ml and 11698240 TCID50/ml, the “virus titer, TCID50/ml (Figure 2A)” value (HRV-B14 [2]; compound concentration 0.01 µM) was 16982410 TCID50/ml and 30000000 TCID50/ml and 31612280 TCID50/ml and the “virus titer, TCID50/ml (Figure 2A)” value (HRV-B14 [2]; compound concentration 0.1 µM) was 13548130 TCID50/ml and 11698240 TCID50/ml. The “virus titer, TCID50/ml (Figure 2A)” value (HRV-B14 [2]; compound concentration 0.3 µM) was 13548130 TCID50/ml and 11698240 TCID50/ml, the “virus titer, TCID50/ml (Figure 2A)” value (HRV-B14 [2]; compound concentration 1 µM) was 348134 TCID50/ml and 316228 TCID50/ml and 354813 TCID50/ml and the “virus titer, TCID50/ml (Figure 2A)” value (EV-A71 (strain BrCr); compound concentration 10 µM) was 316.228 TCID50/ml. For the same molecule, the “virus titer, TCID50/ml (Figure 2A)” value (EV-A71 (strain BrCr); compound concentration 30 µM) was 316.228 TCID50/ml, the “virus titer, TCID50/ml (Figure 2A)” value (EV-A71 (strain BrCr); compound concentration 100 µM) was 316.228 TCID50/ml and the “virus titer, TCID50/ml (Figure 2A)” value (EV-A71 (strain BrCr); compound concentration 150 µM) was 316.228 TCID50/ml. The EC50 (CV-A24; Enterovirus C, CVA24, HeLa R19, read-out: EC50 CV-A24) was 19.5 ± 0.55 µM, the EC50 (CV-A24; Enterovirus C, CVA24, HeLa R19, read-out: EC50 CV-A24 strain Joseph) was 18.7 ± 0.67 µM and the EC50 (CV-A24; Enterovirus C, CVA24, HeLa R19, read-out: EC50 Exp1) was 19 µM. For the same molecule, the EC50 (CV-A24; Enterovirus C, CVA24, HeLa R19, read-out: EC50 Exp2) was 20.1 µM, the EC50 (CV-A24; read-out: EC50 Exp1) was 18 µM and the EC50 (CV-A24; read-out: EC50 Exp2) was 19.3 µM. For the same molecule, the “resistance of reverse-engineered EV-A71 2C M193L (in words)” value (EV-A71) was “conferred 19d resistance”, the “resistance of reverse-engineered EV-A71 2C M193L/R151H (in words)” value (EV-A71) was “further increased the resistance” and the “resistance of reverse-engineered EV-A71 2C M193L/R151H/T133S (in words)” value (EV-A71) was “slightly further increased resistance”. For the same molecule, the “resistance of reverse-engineered EV-A71 2C R151H (in words)” value (EV-A71) was “did not confer resistance”, the “multicycle replication assay read-out, EV-A71(BrCr)” value (EV-A71; 0.2344 µM) was 5.8952 and 4.978 and 5.24 and the “multicycle replication assay read-out, EV-A71(BrCr)” value (EV-A71; 0.4688 µM) was 6.681 and 6.55 and 6.0262. For the same molecule, the “multicycle replication assay read-out, EV-A71(BrCr)” value (EV-A71; 1.875 µM) was 102.314 and 101.266 and 100.218, the “multicycle replication assay read-out, EV-A71(BrCr)” value (EV-A71; 3.75 µM) was 101.266 and 99.5633 and 96.5502 and the “multicycle replication assay read-out, EV-A71(BrCr)” value (EV-A71; 7.5 µM) was 100.48 and 99.0393 and 95.2402. For the same molecule, the “multicycle replication assay read-out, EV-A71(BrCr)” value (EV-A71; 15 µM) was 94.1921 and 92.2271 and 88.5589, the “multicycle replication assay read-out, EV-A71(BrCr)” value (EV-A71; 30 µM) was 98.1223 and 94.4541 and 90.524 and the EC50 (EV-A71; EVA71, HeLa R19, read-out: EC50 Average) was 1.29 µM. It also gave an EC50 (EV-A71; EVA71, HeLa R19, read-out: EC50 EV-A71) of 0.27 ± 0.12 µM.
